In patent publication US20250134855A1, “CO[…] AND METHODS OF USING SAME” (LYKOS THERAPEUTICS, INC., priority 2022, published 2025):

How the values were obtained:
[1] = system: participants with PTSD of moderate or greater severity; assay: MAPP2 Phase 3: Sheehan Disability Scale (SDS); format: in vivo, human
Source text: FIG. 36 and FIG. 37 show the time course of improvement in Clinician Administered PTSD Scale for DSM-5 (CAPS-5) total severity score versus placebo. Each show a treatment difference between MDMA and placebo after 3 medication sessions with psychological intervention. […] Between the second and third treatment sessions, the difference between the groups appeared to continue to increase in both studies. The primary efficacy measure was change from baseline in the CAPS-5 total severity score at 18 weeks, which was evaluated 2 months after the final dosing session. The CAPS-5 is a 30-item, clinician-rated scale used to assess severity of PTSD symptoms and diagnostic status according to DSM-5 criteria, as described herein. Scores on the CAPS 5 range from 0 to 80, with higher scores indicating more severe PTSD symptoms. In both studies, a secondary efficacy measure was change from baseline in Sheehan Disability Scale (SDS) mean item scores at 18 weeks. The modified SDS is a 3-item, clinician-rated scale measuring the degree of functional impairment in work, family, and social life. Scores on the SDS mean items range from 0 to 10, with higher scores indicating more functional impairment. In these studies, the efficacy assessments were administered by blinded independent raters 18 to 30 days after medication sessions 1 and 2.
(§1) MAPP2 was a Phase 3 randomized, placebo-controlled, 2-arm, double-blind, multi-site study conducted to investigate the efficacy and safety of MDMA-AT in participants with PTSD of moderate or greater severity. This study included 3 experimental sessions of therapy combined with either MDMA or placebo. During Experimental Session 1, participants received a split dose of 120 mg (80 mg+40 mg). Participants received an escalated split dose of 180 mg during Experimental Sessions 2 and 3 unless there were tolerability issues or the participant declined.
The primary outcome measure, the CAPS-5, evaluated changes in PTSD symptom severity and the secondary outcome measure, the SDS, evaluated changes in functional impairment. Both measures were assessed by a blinded centralized language-specific IR pool.
The de jure estimand of treatment efficacy was used to determine the effect of MDMA-AT on SDS total score in the mITT analysis set.

[2] = system: participants with PTSD of moderate or greater severity; assay: MAPP2 Phase 3: safety, adverse events; format: in vivo, human
Method: as §1
Overall, 102 (98.1%) participants reported at least 1 TEAE during the study period (Table 52riod (Table 52riod (Table 52). Of these, 2 (3.9%) participants from the placebo group were discontinued due to TEAE (abdominal pain and suicidal ideation). There were no serious TEAEs or deaths reported during the study. Adverse events of special interest included a subset of AEs involving cardiac function, suicidality, and MDMA abuse. There were 6 (11.3%) participants in the MDMA group and 3 (5.9%) participants in the placebo group with an TEAE of special interest. AESIs related to suicidality were reported in 2 MDMA participants and 2 placebo participants. AESIs related to cardiac function were reported in 4 MDMA participants and 1 placebo participant (all palpitations). […] A listing of all TEAEs from MDMA-AT group with ≥5% incidence and twice the prevalence of placebo group is provided below in Table 44 Table 44 Table 44.

[3] = MAPP2, mITT, Baseline (Visit 3)
[4] = MAPP2, mITT, Baseline to Visit 19
[5] = MAPP2, mITT, Visit 19 (Primary Endpoint)
[6] = end of treatment, 52 patients (study not given)

SMILES: CNC(C)Cc1ccc2c(c1)OCO2 (stereo not shown) [MDMA, 3,4-methylenedioxymethamphetamine]
- SDS Total Score CFB, LSMean ([1]; MAPP2, mITT, MMRM, Visit 19): −3.31
- SDS Total Score CFB, LSMean for Treatment Difference ([1]; MAPP2, mITT, MMRM, vs placebo with therapy, Visit 19): −1.20
- SDS Total Score, Mean [1, 3]: 6.0
- SDS Total Score, Median [1, 3]: 6.3
- SDS Total Score CFB, Mean [1, 4]: −3.3
- SDS Total Score CFB, Median [1, 4]: −4.0
- SDS Total Score, Mean ([1]; MAPP2, mITT, Visit 8): 4.1
- SDS Total Score, Median ([1]; MAPP2, mITT, Visit 8): 4.3
- SDS Total Score, Mean ([1]; MAPP2, mITT, Visit 13): 2.9
- SDS Total Score, Median ([1]; MAPP2, mITT, Visit 13): 2.7
- SDS Total Score, Mean [1, 5]: 2.7
- SDS Total Score, Median [1, 5]: 2.3
- reduction in SDS total scores ([1]; MAPP2, MMRM, de jure estimand, mITT): −3.31
- SDS Remission (SDS mean item score < 3) [1, 6]: (55.8) %
- SDS Remission (SDS mean item score < 3), n [1, 6]: 29
- SDS Responder (4 point or greater reduction from baseline SDS mean item score) [1, 6]: (53.8) %
- SDS Responder (4 point or greater reduction from baseline SDS mean item score), n [1, 6]: 28
- AESIs of MDMA abuse ([2]; MAPP2): no AESIs of MDMA abuse
- TEAE Abdominal pain upper, % ([2]; MAPP2): (9.4) %
- TEAE Bruxism, % ([2]; MAPP2): (13.2) %
- TEAE Chest discomfort, % ([2]; MAPP2): (17.0) %
- TEAE Chills, % ([2]; MAPP2): (15.1) %
- TEAE Decreased appetite, % ([2]; MAPP2): (35.8) %
- TEAE Dissociation, % ([2]; MAPP2): (5.7) %
- TEAE Dry mouth, % ([2]; MAPP2): (17.0) %
- TEAE Feeling abnormal, % ([2]; MAPP2): (9.4) %
- TEAE Feeling cold, % ([2]; MAPP2): (20.8) %
- TEAE Feeling hot, % ([2]; MAPP2): (26.4) %
- TEAE Feeling jittery, % ([2]; MAPP2): (15.1) %
- TEAE Feeling of body temperature change, % ([2]; MAPP2): (9.4) %
- TEAE Flushing, % ([2]; MAPP2): (5.7) %
- TEAE Gait disturbance, % ([2]; MAPP2): (5.7) %
- TEAE Heart rate increased, % ([2]; MAPP2): (5.7) %
- TEAE Hyperhidrosis, % ([2]; MAPP2): (34.0) %
- TEAE Hypoaesthesia, % ([2]; MAPP2): (9.4) %
- TEAE Muscle spasms, % ([2]; MAPP2): (7.5) %
- TEAE Muscle tightness, % ([2]; MAPP2): (58.8) %
- TEAE Mydriasis, % ([2]; MAPP2): (11.3) %
- TEAE Nausea, % ([2]; MAPP2): (45.3) %
- TEAE Nystagmus, % ([2]; MAPP2): (13.2) %
- TEAE Palpitations, % ([2]; MAPP2): (9.4) %
- TEAE Panic attack, % ([2]; MAPP2): (5.7) %
- TEAE Paraesthesia, % ([2]; MAPP2): (18.9) %
- TEAE Restlessness, % ([2]; MAPP2): (15.1) %
- TEAE Thirst, % ([2]; MAPP2): (7.5) %
- TEAE Tremor, % ([2]; MAPP2): (11.3) %
- TEAE Vision blurred, % ([2]; MAPP2): (15.1) %
- TEAE Visual impairment, % ([2]; MAPP2): (5.7) %
- participants with an TEAE of special interest ([2]; MAPP2): 11.3%
- At least one TEAE of Special Interest, % ([2]; MAPP2, Safety Set): (11.3) %
- At least one Treatment-emergent SAE Leading to Death, % ([2]; MAPP2, Safety Set): (0.0) %
- At least one Treatment-emergent SAE, % ([2]; MAPP2, Safety Set): (0.0) %
- Discontinued study treatment due to any TEAE(s), % ([2]; MAPP2, Safety Set): (0.0) %
- Participants with at least 1 TEAE during Experimental Sessions and 2 Days Following, % ([2]; MAPP2, Safety Set): (100.0) %
- Subjects with at least 1 Severe TEAE, % ([2]; MAPP2, Safety Set): (9.4) %
- Subjects with at least 1 TEAE, % ([2]; MAPP2, Safety Set): (100.0) %
- heart rate and blood pressure during experimental sessions ([2]; MAPP2, dose-dependent, no clinical intervention required): transient increases
- participants with at least 1 temporally related TEAE ([2]; MAPP2, during an experiment session or up to 2 days following): All participants
